Results as given in the supplement of paper PMC10307832.

Legend:
Assay in all cases: relative viability (nuclei count vs DMSO), 5 days (fraction); higher = more cells survive
[1] = test system: LC-2-ad
In short: (§1)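 Lung cancer cell lines were pin-tool dosed in 1536-well plates on the day after seeding, with either a lone drug or a fixed anchor-drug dose plus five library-drug doses (not always all listed) in √10 steps. Nuclei were counted on 4× images after 5 days. Relative viability is the ratio of treated-well to vehicle-well nuclei counts, with each value a median of duplicate plates.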

[2] = test system: NCI-H2342
In short: as §1

[3] = test system: NCI-H2228
In short: as §1

[4] = test system: NCI-H1915
In short: as §1

[5] = test system: SK-LU-1
In short: as §1

[6] = test system: HCC-15
In short: as §1

[7] = test system: LXF-289
In short: as §1

[8] = test system: SW 1573
In short: as §1

[9] = test system: NCI-H647
In short: as §1

[10] = test system: LOU-NH91
In short: as §1

[11] = test system: NCI-H522
In short: as §1

[12] = test system: RERF-LC-KJ
In short: as §1

[13] = test system: PC-3 [JPC-3]
In short: as §1

[14] = test system: NCI-H1734
In short: as §1

[15] = test system: NCI-H1975
In short: as §1

[16] = test system: NCI-H1792
In short: as §1

[17] = test system: HOP-62
In short: as §1

[18] = test system: NCI-H358
In short: as §1

[19] = test system: NCI-H2347
In short: as §1

[20] = test system: NCI-H460
In short: as §1

[21] = test system: HCC-78
In short: as §1

[22] = test system: NCI-H1755
In short: as §1

[23] = test system: NCI-H2126
In short: as §1

[24] = test system: A-427
In short: as §1

## CC(C)Oc1cc(Nc2nc(N[C@@H](C)c3ccc(F)cn3)ncc2Cl)n[nH]1 [AZ23] + Nc1nc2[nH]cc(CCc3ccc(C(=O)N[C@@H](CCC(=O)O)C(=O)O)cc3)c2c(=O)[nH]1 [Pemetrexed] (partner 0.2 µM)
[1]; first compound 0.01 µM
  relative viability: 0.275
[1]; first compound 0.03162 µM
  relative viability: 0.279
[1]; first compound 0.3162 µM
  relative viability: 0.297
[2]; first compound 0.01 µM
  relative viability: 0.903
[2]; first compound 0.03162 µM
  relative viability: 0.811
[2]; first compound 0.3162 µM
  relative viability: 0.776
[3]; first compound 0.01 µM
  relative viability: 0.301
[3]; first compound 0.03162 µM
  relative viability: 0.407
[3]; first compound 0.3162 µM
  relative viability: 0.354
[4]; first compound 0.01 µM
  relative viability: 0.463
[4]; first compound 0.03162 µM
  relative viability: 0.485
[4]; first compound 0.3162 µM
  relative viability: 0.607
[5]; first compound 0.03162 µM
  relative viability: 1.13
[5]; first compound 0.3162 µM
  relative viability: 1.06
[6]; first compound 0.01 µM
  relative viability: 0.204
[6]; first compound 0.03162 µM
  relative viability: 0.222
[6]; first compound 0.3162 µM
  relative viability: 0.208
[7]; first compound 0.01 µM
  relative viability: 1.02
[7]; first compound 0.03162 µM
  relative viability: 0.974
[7]; first compound 0.3162 µM
  relative viability: 0.99
[8]; first compound 0.01 µM
  relative viability: 0.958
[8]; first compound 0.03162 µM
  relative viability: 0.792
[8]; first compound 0.3162 µM
  relative viability: 0.849
[9]; first compound 0.01 µM
  relative viability: 0.151
[9]; first compound 0.03162 µM
  relative viability: 0.192
[9]; first compound 0.3162 µM
  relative viability: 0.182
[10]; first compound 0.01 µM
  relative viability: 0.505
[10]; first compound 0.03162 µM
  relative viability: 0.386
[10]; first compound 0.3162 µM
  relative viability: 0.394
[11]; first compound 0.01 µM
  relative viability: 1
[11]; first compound 0.03162 µM
  relative viability: 1
[11]; first compound 0.3162 µM
  relative viability: 1.11
[12]; first compound 0.01 µM
  relative viability: 0.493
[12]; first compound 0.03162 µM
  relative viability: 0.463
[12]; first compound 0.3162 µM
  relative viability: 0.495
[13]; first compound 0.01 µM
  relative viability: 0.955
[13]; first compound 0.03162 µM
  relative viability: 1.25
[13]; first compound 0.3162 µM
  relative viability: 1.22
[14]; first compound 0.01 µM
  relative viability: 0.358
[14]; first compound 0.03162 µM
  relative viability: 0.454
[14]; first compound 0.3162 µM
  relative viability: 0.41
[15]; first compound 0.01 µM
  relative viability: 0.272
[15]; first compound 0.03162 µM
  relative viability: 0.296
[15]; first compound 0.3162 µM
  relative viability: 0.312
[16]; first compound 0.01 µM
  relative viability: 0.813
[16]; first compound 0.03162 µM
  relative viability: 0.912
[16]; first compound 0.3162 µM
  relative viability: 1
[17]; first compound 0.01 µM
  relative viability: 0.287
[17]; first compound 0.03162 µM
  relative viability: 0.359
[17]; first compound 0.3162 µM
  relative viability: 0.359
[18]; first compound 0.01 µM
  relative viability: 0.151
[18]; first compound 0.03162 µM
  relative viability: 0.175
[18]; first compound 0.3162 µM
  relative viability: 0.17
[19]; first compound 0.01 µM
  relative viability: 0.379
[19]; first compound 0.03162 µM
  relative viability: 0.412
[19]; first compound 0.3162 µM
  relative viability: 0.459
[20]; first compound 0.01 µM
  relative viability: 0.0522
[20]; first compound 0.03162 µM
  relative viability: 0.0661
[20]; first compound 0.3162 µM
  relative viability: 0.0611
[21]; first compound 0.01 µM
  relative viability: 0.976
[21]; first compound 0.03162 µM
  relative viability: 0.902
[21]; first compound 0.3162 µM
  relative viability: 0.938
[22]; first compound 0.01 µM
  relative viability: 0.401
[22]; first compound 0.03162 µM
  relative viability: 0.459
[22]; first compound 0.3162 µM
  relative viability: 0.468
[23]; first compound 0.01 µM
  relative viability: 0.62
[23]; first compound 0.03162 µM
  relative viability: 0.695
[23]; first compound 0.3162 µM
  relative viability: 0.679
[24]; first compound 0.01 µM
  relative viability: 0.797
[24]; first compound 0.03162 µM
  relative viability: 1.01
[24]; first compound 0.3162 µM
  relative viability: 1.15
